Data: patent US9771333B2, “Quinazoline derivatives as TAM family kinase inhibitors” (SIGNALCHEM LIFESCIENCES CORP., priority 2013, dated 2017)
pIC50: −log10 of the molar value.

Assays:
Assay type in all cases: biochemical
human Axl = target: T1, human Axl (Homo sapiens, UniProt P30530); experiment: Kinase enzymatic activity assay (33P-radiolabeled phosphate transfer), Axl; settings: recombinant human Axl (473-end), poly(4:1 glu:tyr) substrate, 30 minutes
T1 construct: GST (N); made in house; host or cells: Sf9 insect cells (baculovirus)
T1 sequence (P30530 473-894 limits assumed): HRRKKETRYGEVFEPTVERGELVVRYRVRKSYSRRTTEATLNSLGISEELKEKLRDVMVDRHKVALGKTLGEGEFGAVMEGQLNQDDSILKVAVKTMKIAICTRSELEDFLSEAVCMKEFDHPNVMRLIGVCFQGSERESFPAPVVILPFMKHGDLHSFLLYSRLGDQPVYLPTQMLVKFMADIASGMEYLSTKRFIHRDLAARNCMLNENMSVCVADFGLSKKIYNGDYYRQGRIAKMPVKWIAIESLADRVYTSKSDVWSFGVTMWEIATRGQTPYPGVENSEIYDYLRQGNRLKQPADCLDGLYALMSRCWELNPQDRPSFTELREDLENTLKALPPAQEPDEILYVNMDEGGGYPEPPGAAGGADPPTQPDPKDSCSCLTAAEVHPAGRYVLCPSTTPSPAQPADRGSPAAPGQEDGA
How it was run: (§1)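 GST-tagged human Tyro3 (455-end), Axl (473-end) and Mer (578-872) from Sf9 cells, with poly(Glu:Tyr) 4:1 substrate, in MOPS pH 7.2 buffer with MgCl2. [33P]-ATP added from a 250 µM cocktail; reaction 30 min at room temperature, filter-captured counts, duplicates. IC50 derived from % inhibition over a compound serial dilution.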

human Tyro3 = target: T2, human Tyro3 (Homo sapiens, UniProt Q06418); experiment: Kinase enzymatic activity assay (33P-radiolabeled phosphate transfer), Tyro3; settings: recombinant human Tyro3 (455-end), poly(4:1 glu:tyr) substrate, 30 minutes
T2 construct: GST (N); made in house; host or cells: Sf9 insect cells (baculovirus)
T2 sequence (Q06418 455-890 limits assumed): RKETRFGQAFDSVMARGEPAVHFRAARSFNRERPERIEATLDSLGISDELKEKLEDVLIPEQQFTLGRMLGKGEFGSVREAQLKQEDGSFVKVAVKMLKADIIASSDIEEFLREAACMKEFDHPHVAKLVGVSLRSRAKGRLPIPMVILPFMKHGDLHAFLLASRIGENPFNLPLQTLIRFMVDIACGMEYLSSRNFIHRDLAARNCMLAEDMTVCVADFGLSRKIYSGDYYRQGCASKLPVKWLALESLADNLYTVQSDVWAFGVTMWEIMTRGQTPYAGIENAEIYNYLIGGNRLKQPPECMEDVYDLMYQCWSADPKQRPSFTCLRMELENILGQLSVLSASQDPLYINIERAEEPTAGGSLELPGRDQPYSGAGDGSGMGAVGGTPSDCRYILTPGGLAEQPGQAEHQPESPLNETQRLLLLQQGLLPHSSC
How it was run: as §1

human Mer = target: T3, human Mer (Homo sapiens, UniProt Q12866); experiment: Kinase enzymatic activity assay (33P-radiolabeled phosphate transfer), Mer; settings: recombinant human Mer (578-872), poly(4:1 glu:tyr) substrate, 30 minutes
T3 construct: GST (N); made in house; host or cells: Sf9 insect cells (baculovirus)
T3 sequence (Q12866 578-872): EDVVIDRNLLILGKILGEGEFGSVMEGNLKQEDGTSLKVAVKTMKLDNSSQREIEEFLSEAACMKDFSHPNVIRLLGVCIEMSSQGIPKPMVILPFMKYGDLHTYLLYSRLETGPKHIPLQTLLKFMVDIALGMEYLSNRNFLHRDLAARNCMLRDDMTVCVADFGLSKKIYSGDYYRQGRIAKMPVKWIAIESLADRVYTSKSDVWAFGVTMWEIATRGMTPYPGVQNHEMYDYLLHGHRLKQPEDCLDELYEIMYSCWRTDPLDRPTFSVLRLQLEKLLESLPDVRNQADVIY
How it was run: as §1

Row | Compound | pIC50 (human Axl) | pIC50 (human Tyro3) | pIC50 (human Mer)
1 | CN1CCC(COc2cc(OC3CCOCC3)c3c(Nc4nccs4)ncnc3c2)CC1 [Example 2.39, N-(7-((1-methylpiperidin-4-yl)methoxy)-5-((tetrahydro-2H-pyran-4-yl)oxy)quinazolin-4-yl)thiazol-2-amine] | > 6.30 | 6.00 to 6.30 | > 6.30
2 | CN(C)CCCN(C)c1cc(OC2CCOCC2)c2c(Nc3nc(C(F)(F)F)cs3)ncnc2c1 [Example 2.59, N^7-(3-(dimethylamino)-propyl)-N^7-methyl-5-((tetrahydro-2H-pyran-4-yl)oxy)-N^4-(4-(trifluoromethyl)thiazol-2-yl)quinazoline-4,7-diamine] | 6.00 to 6.30 | < 5.00 | < 5.00
3 | c1csc(Nc2ncnc3cc(OCCCN4CCOCC4)cc(OC4CCOCC4)c23)n1 [Example 2.21, N-(7-(3-morpholinopropoxy)-5-((tetrahydro-2H-pyran-4-yl)oxy)quinazolin-4-yl)thiazol-2-amine] | > 6.30 | 5.00 to 6.00 | > 6.30
4 | COC(=O)Cc1cccc(Oc2ncnc3cc(OCCCN4CCOCC4)cc(OC)c23)c1 [Example 2.27, methyl 2-(3-((5-methoxy-7-(3-morpholinopropoxy)quinazolin-4-yl)oxy)phenyl)acetate] | < 5.00 | 5.00 to 6.00 | 5.00 to 6.00
5 | FC(F)(F)c1csc(Nc2ncnc3cc(OCCN4CCOCC4)cc(OC4CCOCC4)c23)n1 [Example 2.53, N-(7-(2-morpholinoethoxy)-5-((tetrahydro-2H-pyran-4-yl)oxy)quinazolin-4-yl)-4-(trifluoromethyl)thiazol-2-amine] | 5.00 to 6.00 | < 5.00 | < 5.00
6 | CN1CCC(COc2cc(OC3CCOCC3)c3c(Nc4cc(C(F)(F)F)no4)ncnc3c2)CC1 [Example 2.58, N-(7-((1-methylpiperidin-4-yl)methoxy)-5-((tetrahydro-2H-pyran-4-yl)oxy)quinazolin-4-yl)-3-(trifluoromethyl)isoxazol-5-amine] | 6.00 to 6.30 | < 5.00 | 5.00 to 6.00
7 | CN1CCC(COc2cc(OC3CCOCC3)c3c(Oc4ccc(C(F)(F)F)cc4)ncnc3c2)CC1 [Example 4.11, 7-((1-methylpiperidin-4-yl)methoxy)-5-((tetrahydro-2H-pyran-4-yl)oxy)-4-(4-(trifluoromethyl)phenoxy)quinazoline] | > 6.30 | > 6.30 | 6.00 to 6.30
8 | CN1CCN(CCOc2cc(OC3CCOCC3)c3c(OC4CCCCC4)ncnc3c2)CC1 [Example 3.4, 4-(cyclohexyloxy)-7-(2-(4-methylpiperazin-1-yl)ethoxy)-5-((tetrahydro-2H-pyran-4-yl)oxy)quinazoline] | 6.00 to 6.30 | 5.00 to 6.00 | 6.00 to 6.30
9 | Fc1ccc(Oc2ncnc3cc(OCCCN4CCOCC4)cc(N4CCOCC4)c23)c(Cl)c1 [Example 4.8, 4-(3-((4-(2-chloro-4-fluorophenoxy)-5-morpholinoquinazolin-7-yl)oxy)propyl)morpholine] | < 5.00 | 5.00 to 6.00 | 5.00 to 6.00
10 | Cc1csc(Nc2ncnc3cc(OCC4CCN(C)CC4)cc(OC4CCOCC4)c23)n1 [Example 2.42, 4-methyl-N-(7-((1-methylpiperidin-4-yl)methoxy)-5-((tetrahydro-2H-pyran-4-yl)oxy)quinazolin-4-yl)thiazol-2-amine] | > 6.30 | 5.00 to 6.00 | > 6.30
11 | CN1CCN(CCOc2cc(OC3CCOCC3)c3c(Oc4ccccc4)ncnc3c2)CC1 [Example 3.2, 7-(2-(4-methylpiperazin-1-yl)ethoxy)-4-phenoxy-5-((tetrahydro-2H-pyran-4-yl)oxy)quinazoline] | > 6.30 | > 6.30 | 5.00 to 6.00
12 | OC[C@@H](O)COc1cc(OC2CCOCC2)c2c(Nc3nc(C(F)(F)F)cs3)ncnc2c1 [Example 2.55, (R)-3-((5-((tetrahydro-2H-pyran-4-yl)oxy)-4-((4-(trifluoromethyl)thiazol-2-yl)amino)quinazolin-7-yl)oxy)propane-1,2-diol] | 6.00 to 6.30 | < 5.00 | < 5.00
13 | CN1CCN(CCOc2cc(OC3CCOCC3)c3c(Nc4nccs4)ncnc3c2)CC1 [Example 2.14, N-(7-(2-(4-methylpiperazin-1-yl)ethoxy)-5-((tetrahydro-2H-pyran-4-yl)oxy)quinazolin-4-yl)thiazol-2-amine] | > 6.30 | 5.00 to 6.00 | > 6.30
14 | COCCN(C)CCOc1cc(OC2CCOCC2)c2c(Oc3ccc(F)cc3Cl)ncnc2c1 [Example 2.3, 2-((4-(2-chloro-4-fluorophenoxy)-5-((tetrahydro-2H-pyran-4-yl)oxy)quinazolin-7-yl)oxy)-N-(2-methoxyethyl)-N-methylethanamine] | < 5.00 | 6.00 to 6.30 | 5.00 to 6.00
15 | COCCOCCOc1cc(OC2CCOCC2)c2c(Oc3ccc(F)cc3Cl)ncnc2c1 [Example 2.4, 4-(2-chloro-4-fluorophenoxy)-7-(2-(2-methoxyethoxy)ethoxy)-5-((tetrahydro-2H-pyran-4-yl)oxy)quinazoline] | < 5.00 | 5.00 to 6.00 | 5.00 to 6.00
16 | COc1cc(OCCN2CCN(C)CC2)cc2ncnc(Oc3ccc(F)cc3Cl)c12 [Example 2.12, 4-(2-chloro-4-fluorophenoxy)-5-methoxy-7-(2-(4-methylpiperazin-1-yl)ethoxy)quinazoline] | 5.00 to 6.00 | > 6.30 | 5.00 to 6.00
17 | CN(C)CCN1CCN(c2cc(OC3CCOCC3)c3c(Nc4nc(C(F)(F)F)cs4)ncnc3c2)CC1 [Example 2.57, N-(7-(4-(2-(dimethyl-amino)ethyl)piperazin-1-yl)-5-((tetrahydro-2H-pyran-4-yl)oxy)-quinazolin-4-yl)-4-(trifluoromethyl)-thiazol-2-amine] | > 6.30 | 5.00 to 6.00 | 5.00 to 6.00
18 | COc1cc(N2CCN(C)CC2)cc2ncnc(Nc3nc(C(F)(F)F)cs3)c12 [Example 2.25, N-(5-methoxy-7-(4-methylpiperazin-1-yl)quinazolin-4-yl)-4-(trifluoromethyl)thiazol-2-amine] | 6.00 to 6.30 | < 5.00 | < 5.00
19 | COc1cc(OC2CCOCC2)c2c(Oc3ccc(F)cc3Cl)ncnc2c1 [Example 3.1, 4-(2-chloro-4-fluorophenoxy)-7-methoxy-5-((tetrahydro-2H-pyran-4-yl)oxy)quinazoline] | < 5.00 | 6.00 to 6.30 | 6.00 to 6.30
20 | CN1CCC(COc2cc(OC3CCOCC3)c3c(Sc4nccs4)ncnc3c2)CC1 [Example 2.52, 2-((7-((1-methylpiperidin-4-yl)methoxy)-5-((tetrahydro-2H-pyran-4-yl)oxy)quinazolin-4-yl)thio)thiazole] | > 6.30 | > 6.30 | > 6.30
21 | COCCOc1cc(OCCN2CCN(C)CC2)cc2ncnc(Sc3cc(F)cc(F)c3)c12 [Example 4.3, 4-((3,5-difluorophenyl)thio)-5-(2-methoxyethoxy)-7-(2-(4-methylpiperazin-1-yl)ethoxy)quinazoline] | 5.00 to 6.00 | 5.00 to 6.00 | < 5.00
22 | CN1CCN(CCOc2cc(OC3CCOCC3)c3c(Sc4ccc(F)cc4Cl)ncnc3c2)CC1 [Example 3.3, 4-((2-chloro-4-fluorophenyl)thio)-7-(2-(4-methylpiperazin-1-yl)ethoxy)-5-((tetrahydro-2H-pyran-4-yl)oxy)quinazoline] | < 5.00 | > 6.30 | 5.00 to 6.00
23 | Fc1ccc(Oc2ncnc3cc(OCCN4CCOCC4)cc(OC4CCOCC4)c23)c(Cl)c1 [Example 2.1, 4-(2-((4-(2-chloro-4-fluorophenoxy)-5-((tetrahydro-2H-pyran-4-yl)oxy)-quinazolin-7-yl)oxy)ethyl)morpholine] | 5.00 to 6.00 | 5.00 to 6.00 | 6.00 to 6.30
